Among the data in PubChem BioAssay (NCI) are TGI values, retold here.

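Cells were grown in 96-well plates and exposed to each compound for 48 hours at five concentrations; endpoints were interpolated linearly between bracketing concentrations, or set to the highest concentration if not reached. TGI denotes the concentration required for complete inhibition of growth.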 Some results are limits rather than exact numbers.

Test systems include 786-0 renal; A549 NSCLC; BT-549 breast; HCT-116 colon; HCT-15 colon; HS 578T breast; M14 melanoma; MALME-3M melanoma; NCI-H23 lung; OVCAR-8 ovarian; RXF 393 renal; SF-295 CNS; SK-MEL-2 melanoma; SK-OV-3 ovarian; SNB-19 CNS; SNB-75 CNS; T-47D breast; UACC-62 melanoma; UO-31 renal; HCC-2998 colon.
Assay in all cases: NCI tumour cell line growth inhibition, 48 h

`Cc1nc2c(c(N3CCN(C)CC3)n1)Cc1ccccc1-2`: the TGI in the assay with 786-0 renal, in the assay with A549 NSCLC, in the assay on BT-549 breast, in the assay on HCT-116 colon, with HCT-15 colon and with HS 578T breast was more than 100 µM throughout. In addition, the TGI in the assay on M14 melanoma, in the assay on MALME-3M melanoma, in the assay with NCI-H23 lung, in the assay with OVCAR-8 ovarian, with RXF 393 renal and with SF-295 CNS was more than 100 µM throughout. For the same molecule, the TGI in the assay with SK-MEL-2 melanoma was more than 100 µM; with SK-OV-3 ovarian, more than 100 µM; in the assay on SNB-19 CNS, 74.6 µM; in the assay with SNB-75 CNS it was more than 100 µM; in the assay on T-47D breast, more than 100 µM; in the assay with UACC-62 melanoma, more than 100 µM. In the assay with UO-31 renal, this molecule gave a TGI of 62.8 µM.

In the case of `O=c1[nH]c(Nc2ccc(Br)c(C(F)(F)F)c2)nc2nc[nH]c12`, the TGI is more than 100 µM in the assay with 786-0 renal; more than 100 µM in the assay on A549 NSCLC; more than 100 µM in the assay on BT-549 breast; 40.5 µM in the assay with HCC-2998 colon; more than 100 µM in the assay with HCT-116 colon; more than 100 µM with HCT-15 colon. Moreover, the TGI was 45.6 µM in the assay on HS 578T breast; more than 100 µM in the assay with M14 melanoma; more than 100 µM in the assay with MALME-3M melanoma; more than 100 µM in the assay on NCI-H23 lung; more than 100 µM in the assay with OVCAR-8 ovarian; more than 100 µM in the assay with SF-295 CNS. For the same molecule, the TGI was 44.4 µM in the assay on SK-MEL-2 melanoma; more than 100 µM in the assay on SK-OV-3 ovarian; more than 100 µM in the assay with SNB-19 CNS; more than 100 µM in the assay on SNB-75 CNS; more than 100 µM with T-47D breast; 61.6 µM with UACC-62 melanoma. The molecule also showed a TGI in the assay with UO-31 renal of 77.4 µM.

Consider `COc1ccc(CCN2CCN(CCCc3ccccc3)CC2)cc1`, for which the TGI with 786-0 renal, in the assay on A549 NSCLC, in the assay on BT-549 breast, in the assay on HCC-2998 colon, with HCT-116 colon and in the assay on HCT-15 colon was more than 100 µM each time. Further, the TGI in the assay on HS 578T breast, with M14 melanoma, with MALME-3M melanoma, in the assay with NCI-H23 lung, in the assay with OVCAR-8 ovarian and in the assay with SF-295 CNS was more than 100 µM throughout. Besides, the TGI with SK-MEL-2 melanoma, in the assay on SK-OV-3 ovarian, with SNB-19 CNS, with T-47D breast, with UACC-62 melanoma and in the assay on UO-31 renal was more than 100 µM each time.

Consider `NCC(=O)Nc1ccccc1`, for which the TGI in the assay with 786-0 renal, in the assay on A549 NSCLC, in the assay with BT-549 breast, in the assay on HCC-2998 colon, in the assay on HCT-116 colon and in the assay with HCT-15 colon was more than 100 µM in each case. Moreover, the TGI in the assay with HS 578T breast, with M14 melanoma, in the assay with MALME-3M melanoma, in the assay with NCI-H23 lung, in the assay on OVCAR-8 ovarian and with RXF 393 renal was more than 100 µM in each case. Further, the TGI in the assay on SF-295 CNS, with SK-MEL-2 melanoma, with SNB-19 CNS, in the assay on SNB-75 CNS, in the assay on T-47D breast and in the assay with UACC-62 melanoma was more than 100 µM throughout. In addition, the TGI in the assay with UO-31 renal is more than 100 µM.

Consider `COC(=O)C(Cc1c[nH]c2ccccc12)NC(=O)C(Cc1cnc[nH]1)NC(=O)C1CCC(=O)N1C(=O)OCc1ccccc1` (centres undefined), for which the TGI in the assay on 786-0 renal, in the assay with A549 NSCLC, in the assay on BT-549 breast, with HCC-2998 colon, with HCT-116 colon and with HS 578T breast was more than 100 µM throughout. Moreover, the TGI with M14 melanoma, with MALME-3M melanoma, in the assay with NCI-H23 lung, in the assay with OVCAR-8 ovarian, in the assay on RXF 393 renal and in the assay with SK-MEL-2 melanoma was more than 100 µM in each case. Moreover, the TGI in the assay on SNB-19 CNS, in the assay on SNB-75 CNS, in the assay on T-47D breast, in the assay with UACC-62 melanoma and with UO-31 renal was more than 100 µM in each case.

`CO/C=C(/C(=O)OC)[C@@H]1C[C@@H]1c1ccc2ccccc2c1`: the TGI in the assay with 786-0 renal was more than 100 µM; with A549 NSCLC, 57.4 µM; with BT-549 breast, 50.5 µM; in the assay with HCC-2998 colon, 50.5 µM; in the assay with HCT-116 colon, 44.1 µM; in the assay with HCT-15 colon it was 49.9 µM. For the same molecule, the TGI in the assay on HS 578T breast is more than 100 µM; in the assay with M14 melanoma, 71.9 µM; with MALME-3M melanoma, 50.6 µM; with NCI-H23 lung it was more than 100 µM; in the assay with OVCAR-8 ovarian, more than 100 µM; in the assay on RXF 393 renal it was more than 100 µM. Besides, the TGI with SF-295 CNS was more than 100 µM; with SK-MEL-2 melanoma, 35.1 µM; in the assay on SK-OV-3 ovarian, 59.4 µM; with SNB-19 CNS it was more than 100 µM; in the assay on T-47D breast, 78.5 µM; with UACC-62 melanoma, more than 100 µM. For the same molecule, the TGI in the assay on UO-31 renal is more than 100 µM.

On to `C=C1C2CCC3C4(C)CCCC(C)(C(=O)O)C4CCC3(C2)C1OC(=O)/C(C)=C/C` (centres undefined), for which the TGI was more than 100 µM in the assay with 786-0 renal; more than 100 µM in the assay on A549 NSCLC; more than 100 µM in the assay with BT-549 breast; 69.5 µM in the assay with HCC-2998 colon; more than 100 µM in the assay on HCT-116 colon; 61.6 µM with HCT-15 colon. Further, the TGI in the assay with HS 578T breast was more than 100 µM; with M14 melanoma it was 45.1 µM; in the assay with MALME-3M melanoma it was more than 100 µM; with NCI-H23 lung, more than 100 µM; in the assay with OVCAR-8 ovarian it was more than 100 µM; in the assay with RXF 393 renal, 34.2 µM. For the same molecule, the TGI is 44.2 µM in the assay with SF-295 CNS; more than 100 µM in the assay with SK-MEL-2 melanoma; 70.2 µM in the assay on SK-OV-3 ovarian; more than 100 µM in the assay on SNB-75 CNS; more than 100 µM with T-47D breast; 62.2 µM in the assay with UACC-62 melanoma. Also, in the assay on UO-31 renal, the TGI came to 52.9 µM.

With `O=[N+]([O-])c1ncc(N(CCO)CCO)s1`, the TGI is more than 100 µM with 786-0 renal; 80.6 µM with BT-549 breast; more than 100 µM in the assay with HCC-2998 colon; more than 100 µM in the assay on HCT-116 colon; more than 100 µM with HCT-15 colon; more than 100 µM in the assay with HS 578T breast. The TGI with M14 melanoma was more than 100 µM; with MALME-3M melanoma, 36.3 µM; in the assay on NCI-H23 lung, more than 100 µM; in the assay on OVCAR-8 ovarian, more than 100 µM; in the assay on RXF 393 renal, 33.4 µM; in the assay on SF-295 CNS, more than 100 µM. Besides, the TGI with SK-MEL-2 melanoma is 45.3 µM; in the assay on SK-OV-3 ovarian, more than 100 µM; with SNB-19 CNS it was more than 100 µM; in the assay with SNB-75 CNS, more than 100 µM; in the assay with T-47D breast, 81.8 µM; in the assay on UACC-62 melanoma, 43.7 µM. This molecule also displayed a TGI with UO-31 renal of more than 100 µM.
